These results are taken from patent publication US20100119483A1, “PEPTIDE VIRAL ENTRY INHIBITORS” (Schering Corporation, priority 2004, published 2010).

Values joined by “and” are separate entries in the source; they are usually repeats but may differ in a detail not shown here. Identical values can stand only once.

For this experiment, the system named is HCV pseudoparticles. Nature of the experiment: HCV pseudoparticle (HCVpp) entry assay in Huh7 hepatoma cells, luciferase readout. Format: cell-based, hepatitis C virus. As to conditions: for % of control at ~30 uM: percentage of hepatitis C virus cellular entry at 30 μM peptide vs uninhibited control. As to the method:
HCV pseudotype particle generation. Single cycle HCV pseudoparticles are composed of a replication-defective HIV genome and HCV envelope proteins. These pseudoparticles were made by transfecting 293T cells with 5 ug of each pNL43E-R-luc (Chen et al., J. Virol. 68(2):654-60 (1994)) and plasmid expressing HCV envelope proteins pCMV/E1-2 with profection transfection kit from Promega (Madison, Wis.). The medium was refreshed 12-24 hours after transfection and supernatant was collected 48 hours after transfection. The supernatant from a transfection of only pNL43E-R-luc was used each time as a control for non specific entry events.
Infection of hepatoma cell lines with HCV pseudotype particles and screen for inhibitory peptides. The hepatoma cells, Huh7, was seeded at 8000 cells in 90 ul medium in 96-well plate. In the case of the inhibitor screen, the inhibitor was incubated with cells for one hour at 37° C. and then 50 ul viral supernatant was added to the cells 24 hours after seeding. The viral stock was pre-tittered and diluted to yield approximately 10,000 to 20,000 RLU. The cells were incubated at 37° C. with 5% CO2 for additional 72 hours and were harvested for luciferase assay. Peptide stocks were prepared in 100% DMSO at 10 mg/ml and were first screened at 100 ug/ml and then a dose responsive curve was generated with 10 points 3-fold titration starting from 100 ug/ml.
The peptide of SEQ ID NO: 77 was first serial diluted by the factor of 3 in 100% DMSO from 100 ug/ml and then transferred to the assay plates at 100-fold dilution. The peptide was first incubated with cells and HCVpp (A) or HIVpp (B), respectively, for 30 minutes at […] in this experiment. Then, the medium containing the peptide was removed from the cells and virus with peptide was added to the cells. Cells were incubated for 72 hours and then were harvested for luciferase assay. Two separate trials were performed.
In addition, the peptide of SEQ ID NO: 77 was mutated at several positions and assayed in the HCV entry assay discussed above. […] The assays were performed essentially as described above.

Setting [1] is: 0.1 nM of peptide (printed for three rows), two values per peptide and row.
Setting [2] is: 0.3 nM of peptide, two values per peptide.
Where [3] appears, read: 1 nM of peptide, two values per peptide.
Setting [4] is: 3 nM of peptide, two values per peptide.
Setting [5] is: 10 nM of peptide, two values per peptide.
Where [6] appears, read: 100 nM of peptide, two values per peptide.
[7] abbreviates: 300 nM of peptide, two values per peptide.
[8] abbreviates: 10000 nM of peptide, two values per peptide.
Setting [9] is: 30 nM of peptide, two values per peptide.
Setting [10] is: 30000 nM of peptide, two values per peptide.

“A-I-K-W-E-Y-V-L-L-L-A-L-L (AIKWEYVLLLALL; HCV peptide) [SEQ ID NO: 95, Ala-scan]”: the “% of control at ~30 uM” value is 8%. Moreover, under setting [1], the “% control (HCVpp entry), alanine scanning” value (from here on “% control … alanine scanning”) is 82 % control and 89 % control and 76 % control and 114 % control and 97 % control and 113 % control. Besides, the “% control … alanine scanning” value under setting [2] was 70 % control and 62 % control. Besides, the “% control … alanine scanning” value under setting [3] was 72 % control and 91 % control. The “% control … alanine scanning” value under setting [4] was 52 % control and 85 % control. Moreover, the “% control … alanine scanning” value under setting [5] is 47 % control and 64 % control. Under setting [6], the “% control … alanine scanning” value is 53 % control and 35 % control. Further, the “% control … alanine scanning” value under setting [7] was 13 % control and 18 % control. Further, under setting [8], the “% control … alanine scanning” value was 15 % control and 25 % control.
As for “A-I-K-W-E-Y-V-L-L-L-F-A-L (AIKWEYVLLLFAL; HCV peptide) [SEQ ID NO: 96, Ala-scan]”, the “% of control at ~30 uM” value was 24%. For the same substance, the “% control … alanine scanning” value under setting [1] was 95 % control and 86 % control and 100 % control and 96 % control and 72 % control and 132 % control. Moreover, under setting [2], the “% control … alanine scanning” value is 91 % control and 98 % control. Also, the “% control … alanine scanning” value under setting [3] is 124 % control and 78 % control. Besides, under setting [4], the “% control … alanine scanning” value is 76 % control and 85 % control. The “% control … alanine scanning” value under setting [5] is 58 % control and 73 % control. Under setting [9], the “% control … alanine scanning” value was 63 % control and 67 % control. Also, the “% control … alanine scanning” value under setting [6] is 24 % control and 41 % control. The “% control … alanine scanning” value under setting [7] was 36 % control and 26 % control. In addition, under setting [8], the “% control … alanine scanning” value is 33 % control and 20 % control. Moreover, the “% control … alanine scanning” value under setting [10] worked out at 31 % control.
For the substance “A-I-K-W-E-Y-V-L-L-L-F-K-L (AIKWEYVLLLFKL; HCV peptide) [SEQ ID NO: 136]”, the “% control (HCVpp entry), lysine scanning” value runs as follows: under setting [1], 67 % control and 81 % control and 82 % control and 94 % control and 116 % control and 108 % control; under setting [2], 103 % control and 70 % control; under setting [3], 71 % control and 90 % control; under setting [4], 76 % control and 98 % control; under setting [5], 80 % control and 71 % control; under setting [9], 65 % control and 84 % control. Further, the “% control (HCVpp entry), lysine scanning” value is, setting by setting: under setting [6], 98 % control and 84 % control; under setting [7], 81 % control and 84 % control; under setting [8], 34 % control and 68 % control.
On to “A-I-K-W-E-Y-V-L-L-L-F-L-A [SEQ ID NO: 97]”, for which the “% of control at ~30 uM” value is 24%. For the same substance, under setting [1], the “% control … alanine scanning” value is 80 % control and 101 % control and 105 % control and 102 % control and 95 % control and 97 % control. Besides, the “% control … alanine scanning” value under setting [2] was 72 % control and 102 % control. Also, under setting [3], the “% control … alanine scanning” value is 76 % control and 92 % control. In addition, the “% control … alanine scanning” value under setting [4] is 72 % control and 92 % control. Moreover, the “% control … alanine scanning” value under setting [5] was 79 % control and 69 % control. Moreover, under setting [9], the “% control … alanine scanning” value was 55 % control and 80 % control. Also, the “% control … alanine scanning” value under setting [6] was 46 % control and 51 % control. In addition, the “% control … alanine scanning” value under setting [7] was 30 % control and 47 % control. Besides, under setting [8], the “% control … alanine scanning” value is 19 % control and 37 % control. For the same substance, the “% control … alanine scanning” value under setting [10] is 53 % control and 50 % control.
On to “A-I-K-W-E-Y-V-L-L-L-F-L-K [SEQ ID NO: 137]”, for which the “% control (HCVpp entry), lysine scanning” value was 72 % control and 123 % control and 80 % control and 82 % control and 103 % control and 135 % control under setting [1]; 58 % control and 92 % control under setting [2]; 80 % control and 106 % control under setting [3]; 82 % control and 97 % control under setting [4]; 100 % control and 89 % control under setting [5]; 78 % control and 94 % control under setting [9]. The “% control (HCVpp entry), lysine scanning” value reads like this: under setting [6], 68 % control and 74 % control; under setting [7], 54 % control and 77 % control; under setting [8], 23 % control and 28 % control.
“A-I-K-W-E-Y-V-L-L-L-F-L-L [SEQ ID NO: 106]” gave an HCVpp % inh (truncated peptides tested at 50 uM in 1% DMSO) of 92%.
For “A-I-K-W-E-Y-V-L-L-L-F-L-P [SEQ ID NO: 127]”, the “% control (HCVpp entry), proline scanning” value (“% control … proline scanning” for short) under setting [1] is 90 % control and 86 % control and 75 % control and 122 % control and 113 % control; the “% control … proline scanning” value under setting [2] is 84 % control and 81 % control; the “% control … proline scanning” value under setting [3] is 71 % control and 85 % control; the “% control … proline scanning” value under setting [4] was 66 % control and 53 % control; the “% control … proline scanning” value under setting [5] is 102 % control and 74 % control; the “% control … proline scanning” value under setting [9] was 78 % control and 83 % control. The “% control … proline scanning” value is, setting by setting: under setting [6], 77 % control and 74 % control; under setting [7], 63 % control and 72 % control; under setting [8], 29 % control and 27 % control; under setting [10], 57 % control and 29 % control.
On to “A-I-K-W-E-Y-V-L-L-L-F-P-L (AIKWEYVLLLFPL; HCV peptide) [SEQ ID NO: 126]”, for which the “% control … proline scanning” value under setting [1] is 83 % control and 66 % control and 89 % control and 87 % control and 104 % control and 119 % control; the “% control … proline scanning” value under setting [2] was 88 % control and 91 % control; the “% control … proline scanning” value under setting [3] is 88 % control and 93 % control; the “% control … proline scanning” value under setting [4] was 98 % control and 89 % control; the “% control … proline scanning” value under setting [5] was 86 % control and 76 % control; the “% control … proline scanning” value under setting [9] is 83 % control and 82 % control. For the same substance, the “% control … proline scanning” value by setting is: under setting [6], 68 % control and 81 % control; under setting [7], 72 % control and 85 % control; under setting [8], 43 % control and 44 % control; under setting [10], 55 % control and 80 % control.
For “A-I-K-W-E-Y-V-L-L-L-K-L-L (AIKWEYVLLLKLL; HCV peptide) [SEQ ID NO: 135]”, the “% control (HCVpp entry), lysine scanning” value reads like this: under setting [2], 72 % control and 99 % control; under setting [3], 76 % control and 84 % control; under setting [4], 67 % control and 74 % control; under setting [5], 79 % control and 104 % control; under setting [9], 90 % control and 89 % control; under setting [6], 75 % control and 107 % control. In addition, the “% control (HCVpp entry), lysine scanning” value by setting is: under setting [7], 87 % control and 70 % control; under setting [8], 57 % control and 43 % control; under setting [10], 37 % control and 29 % control.
With “A-I-K-W-E-Y-V-L-L-L-P-L-L (AIKWEYVLLLPLL; HCV peptide) [SEQ ID NO: 125]”, the “% control … proline scanning” value by setting is: under setting [1], 99 % control and 91 % control and 92 % control and 111 % control and 101 % control and 95 % control; under setting [2], 104 % control; under setting [3], 99 % control and 75 % control; under setting [4], 82 % control and 85 % control; under setting [5], 109 % control and 97 % control; under setting [9], 102 % control and 80 % control. For the same substance, the “% control … proline scanning” value was 58 % control and 60 % control under setting [6]; 76 % control and 63 % control under setting [7]; 54 % control and 73 % control under setting [8]; 59 % control and 68 % control under setting [10].
